Values of other authors as cited in publication PMC11702666, “The anti-COVID-19 drug Paxlovid crosses biological barriers of the placenta and brain in rats” (npj Viruses, 2024).
Entries after “also recorded” stand apart in the source; their conditions may differ. Like-named read-outs stand apart in the source and are kept apart here.

Key:
CYP3A = details: cited from earlier work; for AUC0 to infinity: midazolam 2 mg p.o.
[1] = cited from earlier work
[2] = male rats; cited from earlier work
[3] = PBPK model LeiCNS-PK3.0; recommended dosing regimen; cited from earlier work
[4] = oral; cited from earlier work

## Cc1ncc2n1-c1ccc(Cl)cc1C(c1ccccc1F)=NC2 [midazolam]
CYP3A; for midazolam
  increase of apparent CYP3A activity during pregnancy: 35-38%
CYP3A; postpartum
  AUC0 to infinity: 17.9 ± 6.0 ng·h/mL
CYP3A; pregnancy vs postpartum, from midazolam AUC
  increase in CYP3A activity: 1.88 fold
CYP3A; pregnancy, healthy pregnant women
  AUC0 to infinity: 9.5 ± 4.3 ng·h/mL

## CC(C)C(=O)OC[C@H]1O[C@@H](n2ccc(NO)nc2=O)[C@H](O)[C@@H]1O [molnupiravir]
[1]; pregnant rats
  placental barrier transfer: traverse the placental barrier; also recorded: transfer to the placental barrier
[2]
  blood–brain barrier transfer: exhibit the potential to cross the blood–brain barrier
[3]
  predicted brain penetration / effective concentrations against SARS-CoV-2: unable to penetrate the BBB

## CCC(CC)COC(=O)[C@H](C)N[P@](=O)(OC[C@H]1O[C@@](C#N)(c2ccc3c(N)ncnn23)[C@H](O)[C@@H]1O)Oc1ccccc1 [remdesivir]
[1]; experimental animal model
  placental barrier transfer: transfer to the placental barrier
[3]
  predicted brain penetration / effective concentrations against SARS-CoV-2: unable to penetrate the BBB

## CC(C)c1nc(CN(C)C(=O)N[C@H](C(=O)N[C@@H](Cc2ccccc2)C[C@H](O)[C@H](Cc2ccccc2)NC(=O)OCc2cncs2)C(C)C)cs1 [ritonavir]
[4]
  bioavailability: ~80%
